Measurements: patent publication US20100166603A1, “Powder Sterilization” (NOXILIZER, Inc., priority 2008, published 2010)
Values joined by “and” are separate entries in the source; they are usually repeats but may differ in a detail not shown here. Equal entries are not always repeated.

What was measured:
spore population = assay: NO2 gas exposure of powder under dry conditions (dry air diluent), spore inactivation; type: cell-based; conditions: 10 mg/l NO2 gas, exposure 60 to 600 minutes
Source text: FIG. 10 is a log-linear scale of population against exposure time for an experiment carried out with a dry air diluent.

[1] = tested on: spores in PVP/spore mixture powder; assay: NO2 gas sterilization of tumbled PVP/spore mixture powder in humid air, CFU recovery; type: cell-based; conditions: for spore concentration after treatment: two vials present; for CFU per 100 mg: single plates
Procedure: A test to determine whether 100 mg of (PVP) and spore mixture powder could be sterilized using an NO2 gas sterilization process that incorporates a powder tumbling system. The NO2 used was a 10% NO2/90% N2 mixture.
A 2.2 cm diameter circular Tyvek® pieces was likewise cut and the Tyvek® piece was placed between the cap and the silicone septum ring forming a partially breathable cap on the vials, while maintaining the self-healing characteristic of the silicone septum.
The colony forming units (CFU's) recovered from each spore mixture were counted. Multiple plates and dilutions from a given biological indicator (BI) were averaged.
Vials were placed into a cylindrical mesh container. The container was in turn placed into a rock polisher that was configured to spin the container and the vials therein.
The second vial contained 100 mg of PVP/spore mixture with 10 3 mm glass beads (weight of the beads excluded). […]
After the runs, the samples were processed and CFUs were counted after approximately 48 hours of incubation at 35° C.-39° C.

[2] = Run 2 NX1080423A, 3.0 mm, 5 beads, 0.4% NO2, humid air to 25.13 in Hg, 40 min dwell
[3] = Run 2 NX1080423A, 3.0 mm, 10 beads, 0.4% NO2, humid air to 25.13 in Hg, 40 min dwell
[4] = Run 4 NX1080424B, 3.0 mm beads, Table 4 cycle, humid air per Table 5
[5] = Run 5 NX1080429A, 3.0 mm beads, Table 4 cycle, humid air per Table 5
[6] = Run 6 NX1080429B, 3.0 mm beads, Table 4 cycle, humid air per Table 5
[7] = Run 7 NX1080429C, 3.0 mm beads, Table 4 cycle, humid air per Table 5

## [O]N=O [NO2, nitrogen dioxide]
Spore population
  lethality: acceptable lethality
[1]; 0.5 mm bead samples, three pulses, 21 in Hg of humidity added
  final spore concentration: 4.0×10^−1 spores/100 mg
[1]; 0.5 mm bead samples, 17 in Hg of humidity added
  spore concentration after treatment: 1.3×10^2 spores/100 mg
[1]; 0.5 mm bead samples, 21 in Hg of humidity added
  spore concentration after treatment: 1.8×10^3 spores/100 mg
[1]; 0.5 mm bead samples, 23 in Hg of humidity added
  spore concentration after treatment: 3.5×10^2 spores/100 mg
[1]; Run 1 NX1080422A, 0.5 mm beads, first vial, 0.4% NO2, humid air to 25.13 in Hg, 40 min dwell
  Average per 100 mg: 2.4 × 10^4 per 100 mg
[1]; Run 1 NX1080422A, 0.5 mm beads, second vial, 0.4% NO2, humid air to 25.13 in Hg, 40 min dwell
  Average per 100 mg: 6.2 × 10^4 per 100 mg
[1]; [2]
  Average per 100 mg: >2.0 × 10^5 per 100 mg
  CFU per 100 mg: >2.0 × 10^5 CFU per 100 mg
[1]; [3]
  Average per 100 mg: >2.0 × 10^5 per 100 mg
  CFU per 100 mg: >2.0 × 10^5 CFU per 100 mg
[1]; Run 3 NX1080424A, 0.5 mm beads, pre-humidity 10 min, 0.2%+0.2% NO2 with humid air, 10 min dwell, cycle repeats 2
  Average per 100 mg: 3.4 × 10^3 per 100 mg
[1]; Run 3 NX1080424A, 3.0 mm beads, pre-humidity 10 min, 0.2%+0.2% NO2 with humid air, 10 min dwell, cycle repeats 2
  Average per 100 mg: 8.6 × 10^4 per 100 mg
[1]; Run 4 NX1080424B, 0.5 mm beads, Table 4 cycle: pre-NO2 0.4% 10 min, 0.2%+0.2% NO2, humid air per Table 5, 10 min dwell
  Average per 100 mg: 1.8 × 10^3 per 100 mg
[1]; [4]
  Average per 100 mg: 4.0 × 10^4 per 100 mg
  CFU per 100 mg: 4.0 × 10^4 CFU per 100 mg and 3.2 × 10^4 CFU per 100 mg and 5.4 × 10^4 CFU per 100 mg and 3.5 × 10^5 CFU per 100 mg
[1]; Run 5 NX1080429A, 0.5 mm beads, Table 4 cycle, humid air per Table 5
  Average per 100 mg: 3.5 × 10^2 per 100 mg
[1]; [5]
  Average per 100 mg: 3.6 × 10^4 per 100 mg
  CFU per 100 mg: 3.5 × 10^4 CFU per 100 mg and 3.6 × 10^4 CFU per 100 mg
[1]; Run 6 NX1080429B, 0.5 mm beads, Table 4 cycle, humid air per Table 5
  Average per 100 mg: 1.1 × 10^2 per 100 mg
[1]; [6]
  Average per 100 mg: 1.9 × 10^4 per 100 mg
  CFU per 100 mg: 1.6 × 10^4 CFU per 100 mg and 1.8 × 10^4 CFU per 100 mg and 2.7 × 10^4 CFU per 100 mg
[1]; Run 7 NX1080429C, 0.5 mm beads, Table 4 cycle, humid air per Table 5
  Average per 100 mg: 1.3 × 10^2 per 100 mg
[1]; [7]
  Average per 100 mg: 2.3 × 10^4 per 100 mg
  CFU per 100 mg: 2.1 × 10^4 CFU per 100 mg and 2.0 × 10^4 CFU per 100 mg and 2.9 × 10^4 CFU per 100 mg and 2.3 × 10^4 CFU per 100 mg
[1]; Run 8 NX1080501B, 0.5 mm beads, one vial, Table 4 cycle, humid air and repeats per Table 5
  Average per 100 mg: 1.8 × 10^2 per 100 mg
[1]; Run 9 NX1080501C, 0.5 mm beads, one vial, Table 4 cycle, humid air and repeats per Table 5
  Average per 100 mg: 3.3 × 10^1 per 100 mg
[1]; Run 10 NX1080501D, 0.5 mm beads, one vial, Table 4 cycle, humid air and repeats per Table 5
  Average per 100 mg: 5.0 × 10^0 per 100 mg
[1]; Run 11 NX1080501E, 0.5 mm beads, one vial, Table 4 cycle, humid air and repeats per Table 5
  Average per 100 mg: 1.3 × 10^2 per 100 mg
[1]; Run 12 NX1080505A, 0.5 mm beads, one vial, Table 4 cycle, humid air and repeats per Table 5
  Average per 100 mg: 2.2 × 10^1 per 100 mg
[1]; Run 13 NX1080505B, 0.5 mm beads, one vial, Table 4 cycle, humid air and repeats per Table 5
  Average per 100 mg: 2.0 × 10^0 per 100 mg
[1]; Run 14 NX1080505C, 0.5 mm beads, one vial, Table 4 cycle, humid air and repeats per Table 5
  Average per 100 mg: 4.0 × 10^−1 per 100 mg
[1]; Run 15 NX1080505D, 0.5 mm beads, one vial, Table 4 cycle, humid air and repeats per Table 5
  Average per 100 mg: 8.0 × 10^0 per 100 mg
